Article PMC9298916, “The Discovery and Structure‐Activity Evaluation of (+)‐Floyocidin B and Synthetic Analogs” (Chemmedchem, 2021)
Values after ≈ are worked out from the molar mass of the structure shown. Where two headings read alike, the source gives them in different places.

Experiments:
[1] = test system: Caco-2 cells; experiment: Cellular permeability assay utilizing Caco2 cell line; settings: 10 µM, 120 min; for Caco‐2 permeability Papp +Elacridar / Caco‐2 permeability recovery +Elacridar: A2B in the presence of elacridar
[2] = test system: M. catarrhalis ATCC25238I; experiment: Micro-broth dilution growth inhibition, M. catarrhalis; assay type: cell-based
[3] = physchem; assay type: physicochemical; settings: for chromatographic logD: pH 7.4, Log D pH 7.4
Description: 2.4. Assay descriptions for the profiling of all four stereoisomers of (+)-floyocidin B and (−)-avicennone C,1 the avicennone C-floyocidin B hybrids 35, ent-35, 36 and ent-36 as well as the natural product (+)-floyocidin A.
Determination of logD 7.4
LogD values at pH 7.4 were determined by a standardized HPLC method derived from by Genieser et al.8 The calculation of the logD value for measured compounds is performed by comparison of the retention times with standard compounds of known distribution coefficients between 1 -octanol and water at pH 7.4. […]
8 Krass, J. D., Jastorff, B., and Genieser, H.-G. Anal. Chem. 1997, 69, 2575–2581. […]

[4] = Microsomal stability, human; assay type: in vitro ADME; settings: human liver microsomes 0.5 mg/mL; 1 µM compound
Description: (§1) 2.4. Assay descriptions for the profiling of all four stereoisomers of (+)-floyocidin B and (−)-avicennone C,1 the avicennone C-floyocidin B hybrids 35, ent-35, 36 and ent-36 as well as the natural product (+)-floyocidin A. […]
(§2) Pooled liver microsomes are purchased. Microsomes are stored at –80 °C prior to use. Microsomes (final protein concentration 0.5 mg/mL), 0.1 M phosphate buffer pH 7.4, and test compound (final substrate concentration 1 µM; final DMSO concentration 0.25%) are preincubated at 37 °C prior to the addition of NADPH (final concentration 1 mM) to initiate the reaction. A minus cofactor control i ncubation is included for each compound tested where 0.1 M phosphate buffer pH 7.4 is added instead of NADPH. Two control compounds are included. All incubations are performed singularly for each test compound. Each compound is incubate d for 0, 5, 15, 30, and 45 min. The control is incubated for 45 min only. The reactions are stopped by transferring incubate into acetonitrile at the appropriat e time points, in a 1:3 ratio. The termination plates are centrifuged at 3,000 rpm for 20 min at 4 °C to precipitate the protein.
(§3) From a plot of ln peak area ratio (compound peak area/internal standard peak area) against time, the gradient of the line is determined. Subsequently, half -life and intrinsic clearance are calculated using the equations below:
(§4) Elimination rate constant (k) = (- gradient)
(§5) Intrinsic clearance (CL )(µL/min/mg protein) = V x 0.693 […]
(§6) where V = Incubation volume (µL)/Microsomal protein (mg)
(§7) Relevant control compounds are assessed, ensuring intrinsic clearance values fall within the specified limits (if available). […]

[5] = test system: HepG2 cells; experiment: Cytotoxicity on HepG2 cells (CellTiterGlo); assay type: cell-based; settings: 40 h
Description: (§8) Cytotoxicity on THP1 and HepG2 cells
(§9) After 4 hours of HepG2 cell line (provided by ATCC) plating at 2.500 cells /well in 384-w plates, compounds were added to the cells. After an incubation at 37 °C for 40 h, the CellTiterGlo assay (provided by Promega) was performed.
(§10) Luminescence measurement is related to the cell viability. Compound activity is determined by using the control wells with no treatment as control (100% of growth). The assay was performed identically with THP1 cells. All incubations were […]

[6] = test system: THP1 cells; experiment: Cytotoxicity on THP1 cells (CellTiterGlo); assay type: cell-based; settings: THP1 cells; 40 h
Description: as §8, §9, §10

[7] = Microsomal stability, mouse; assay type: in vitro ADME; settings: for Microsomal stability CLint, Mouse / Microsomal stability t1/2, Mouse: mouse liver microsomes 0.5 mg/mL, 1 µM compound
Description: as §1, §2, §3, §4, §5, §6, §7

[8] = test system: C. albicans FH2173; experiment: Micro-broth dilution growth inhibition, C. albicans (ATP quantification); assay type: cell-based
[9] = test system: E. coli ATCC25922 MHC; experiment: Micro-broth dilution growth inhibition, E. coli in CAMH with 44 mM sodium bicarbonate (MHC); assay type: cell-based; settings: E. coli ATCC25922 MHC (CAMH + 44 mM sodium bicarbonate)
[10] = test system: S. aureus ATCC25923; experiment: Micro-broth dilution growth inhibition, S. aureus; assay type: cell-based; settings: Staphylococcus aureus, 18 h
[11] = test system: P. aeruginosa ATCC27853; experiment: Micro-broth dilution growth inhibition, P. aeruginosa; assay type: cell-based; settings: Pseudomonas aeruginosa, 18 h
[12] = test system: E. coli ATCC25922; experiment: Micro-broth dilution growth inhibition, E. coli (CAMH); assay type: cell-based; settings: Escherichia coli, 18 h
[13] = Cellular permeability assay utilizing Caco2 cell line; settings: human
[14] = Candida albicans, FH2173, 48 h, read-out: MIC
[15] = Escherichia coli, ATCC25922, 18 h, read-out: MIC

| SMILES | Caco‐2 permeability Papp +Elacridar [1] | Caco‐2 permeability recovery +Elacridar [1] [%] | Caco‐2 permeability Papp A2B [1] | Caco‐2 permeability recovery A2B [1] [%] | MIC [2] [µg/mL] | Log D pH 7.4 [3] | Microsomal stability CLint, Human [4] [μL/min/mg protein] | Microsomal stability t1/2, Human [4] [min] | Cytotoxicity TC50 HepG2 [5] [µM] | Cytotoxicity TC50 THP1 [6] [µM] | Microsomal stability CLint, Mouse [7] [μL/min/mg protein] | Microsomal stability t1/2, Mouse [7] [min] | MIC ([8]; 48 h) [µg/mL] | MIC [10] [µg/mL] | MIC [8, 14] [µg/mL] | MIC [9, 15] [µg/mL] | MIC [11] [µg/mL] | chromatographic logD [3] | MIC [12] [µg/mL] | further results |
| --- | --- | --- | --- | --- | --- | --- | --- | --- | --- | --- | --- | --- | --- | --- | --- | --- | --- | --- | --- | --- |
| CCCC=Cc1cc2c(cn1)C(O)C1OC1(CC=C(C)C)C2=O (stereo not drawn) [ent‐27] | 64.4 10^−7 cm s^−1 | 15.3 | 40.5 10^−7 cm s^−1 | 8.69 | 8 (≈ 25.5 µM) | 4.16 | 44.3 | 31.3 | 10.4 | 11.5 | 764 | 1.81 | – | – | – | – | – | – | – | Caco‐2 permeability recovery +Elacridar ([1]; listed as ent-27): 15.3%; Caco‐2 permeability recovery A2B ([1]; listed as ent-27): 8.69% |
| CC(C)=CCC12OC1C(O)c1ccccc1C2=O (stereo not drawn) [compound 2, (−)‐avicennone C, reference compound] | 393 10^−7 cm s^−1 | 83.4 | 407 10^−7 cm s^−1 | 86.7 | 64 (≈ 262 µM) | 2.86 | 150 | 9.26 | >30 | 30 | – | – | 128 (≈ 524 µM) | – | – | – | – | – | – | – |
| CC(C)=CCC12OC1C(O)c1ccccc1C2=O (stereo not drawn) [ent‐37] | 300 10^−7 cm s^−1 | 74.6 | 360 10^−7 cm s^−1 | 81.3 | – | 2.82 | 73.5 | 18.9 | 30 | 25.2 | 370 | 3.75 | 128 (≈ 524 µM) | – | – | – | – | – | – | MIC ([9]; 18 h): 128 µg/mL; Caco‐2 permeability recovery +Elacridar ([1]; listed as ent-37): 74.6%; Caco‐2 permeability recovery A2B ([1]; listed as ent-37): 81.3% |
| CCC/C=C/C=C/C1=C(CO)[C@@H](O)[C@H]2O[C@@]2(CC=C(C)C)C1=O [compound 3, (1R,5R,6R)‐3‐((1E,3E)‐Hepta‐1,3‐dien‐1‐yl)‐5‐hydroxy‐4‐(hydroxymethyl)‐1‐(3‐methylbut‐2‐en‐1‐yl)‐7‐oxabicyclo[4.1.0]hept‐3‐en‐2‐one] | – | – | – | – | – | – | – | – | – | – | – | – | – | 64 (≈ 201 µM) | > 128 | > 128 | > 128 | 4.11 | > 128 | – |
| CC(C)=CCC12OC1C(O)c1ccccc1C2=O (stereo not drawn) [compound 37] | – | 80.9 | – | 74.8 | 128 (≈ 524 µM) | – | 54.6 | 25.4 | 30 | 27.2 | – | – | 128 (≈ 524 µM) | – | – | – | – | 2.82 | – | Papp at 120 min, 10 µM ([13]; Caco-2, Caco‐2 permeability Papp +Elacridar, A2B in the presence of elacridar): 27.9 ×10⁻⁶ cm/s; Papp A→B at 120 min, 10 µM ([13]; Caco-2, Caco‐2 permeability Papp A2B, A2B): 32.6 ×10⁻⁶ cm/s; microsomal CLint at 1 µM ([7]; mouse, microsomes, pH 7.4, Microsomal stability CLint): > 1500 µL/min/mg |
| CC(C)=CCC12OC1C(O)c1ccccc1C2=O (stereo not drawn) [compound 38] | 331 10^−7 cm s^−1 | 132 | 620 10^−7 cm s^−1 | 127 | – | 2.84 | 76.0 | 18.2 | 9.49 | 30 | 1070 | 1.29 | – | > 128 | > 128 | > 128 | > 128 | – | > 128 | MIC ([2]; Moraxella catarrhalis, ATCC25238I, read-out: MIC): 128 µg/mL (≈ 524 µM) |
